# Measurements from patent US20240425517A1, “NOVEL COMPOUND FOR DEGRADATION OF TARGET PROTEIN OR POLYPEPTIDE BY POLYUBIQUITINATION” (PRAZER THERAPEUTICS INC., priority 2021, published 2024).
# Counter-ions that a name gives are not always drawn.
# Molecular target: T1, BRD4 proteins (Homo sapiens, UniProt O60885)
# T1 construct: endogenous in cells; host or cells: MM.1S
# Experiment: Degradation of BRD4 protein in MM.1S cell lines (Western blot densitometry)
# Assay type: cell-based
# Conditions: MM.1S cells, 10 μM, 24 hours
# In short: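 MM.1S cells in RPMI-1640 with 10% FBS were treated with each degrader at 10 μM for 24 h. RIPA lysates were analysed by SDS-PAGE/Western blot with β-actin as reference, and BRD4 band densitometry was scored as reduction <40% (+), 40-<70% (++) or ≥70% (+++).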
row,SMILES,BRD4 degrading capacity (%)
1,"Cc1sc2c(c1C)C(c1ccc(Cl)cc1)=N[C@@H](CC(=O)NCCCCCCCNC(=O)c1ccc(-c3ccc(C#CCN)cc3)o1)c1nnc(C)n1-2.Cl [5-111′, (S)-5-(4-(3-aminoprop-1-yn-1-yl)phenyl)-N-(7-(2-(4-(4-chlorophenyl)-2,3,9-trimethyl-6H-thieno[3,2-f][1,2,4]triazolo[4,3-a][1,4]diazepin-6-yl)acetamido)heptyl)furan-2-carboxamide hydrochloride]",++ (the degrading capacity was reduced by 40% to 70% (exclusive of 70))
2,"COC(=O)c1ccc(NC(=O)CCCOC(=O)C[C@@H]2N=C(c3ccc(Cl)cc3)c3c(sc(C)c3C)-n3c(C)nnc32)cc1C#CCN [5-115′, methyl (S)-2-(3-aminoprop-1-yn-1-yl)-4-(4-(2-(4-(4-chlorophenyl)-2,3,9-trimethyl-6H-thieno[3,2-f][1,2,4]triazolo[4,3-a][1,4]diazepin-6-yl)acetoxy)butanamido)benzoate hydrochloride]",+++ (the degrading capacity was reduced by 70% or more)
3,"COC(=O)c1ccc(C#CCNC(=O)C[C@@H]2N=C(c3ccc(Cl)cc3)c3c(sc(C)c3C)-n3c(C)nnc32)cc1C#CCN.Cl [5-116′, methyl (S)-2-(3-aminoprop-1-yn-1-yl)-4-(3-(2-(4-(4-chlorophenyl)-2,3,9-trimethyl-6H-thieno[3,2-f][1,2,4]triazolo[4,3-a][1,4]diazepin-6-yl)acetamido)prop-1-yn-1-yl)benzoate hydrochloride]",+++ (the degrading capacity was reduced by 70% or more)
4,"Cc1sc2c(c1C)C(c1ccc(Cl)cc1)=N[C@@H](CC(=O)N1CCC(CNc3ccc(C(=O)O)c(C#CCN)c3)CC1)c1nnc(C)n1-2 [5-139′, (S)-2-(3-aminoprop-1-yn-1-yl)-4-(((1-(2-(4-(4-chlorophenyl)-2,3,9-trimethyl-6H-thieno[3,2-f][1,2,4]triazolo[4,3-a][1,4]diazepin-6-yl)acetyl)piperidin-4-yl)methyl)amino)benzoic acid trifluoroacetic acid]",+ (the degrading capacity of each BRD4 degrader was reduced by less than 40%)
5,"COC(=O)c1ccc(C(=O)N2CCN(C(=O)C[C@@H]3N=C(c4ccc(Cl)cc4)c4c(sc(C)c4C)-n4c(C)nnc43)CC2)cc1C#CCN.Cl [5-140′, methyl (S)-2-(3-aminoprop-1-yn-1-yl)-4-(4-(2-(4-(4-chlorophenyl)-2,3,9-trimethyl-6H-thieno[3,2-f][1,2,4]triazolo[4,3-a][1,4]diazepin-6-yl)acetyl)piperazine-1-carbonyl)benzoate hydrochloride]",+++ (the degrading capacity was reduced by 70% or more)
6,"COC(=O)c1ccc(NC(=O)CCCNC(=O)C[C@@H]2N=C(c3ccc(Cl)cc3)c3c(sc(C)c3C)-n3c(C)nnc32)cc1C#CCNC(C)=O [5-148′, methyl (S)-2-(3-acetamidoprop-1-yn-1-yl)-4-(4-(2-(4-(4-chlorophenyl)-2,3,9-trimethyl-6H-thieno[3,2-f][1,2,4]triazolo[4,3-a][1,4]diazepin-6-yl)acetamido)butanamido)benzoate]",+ (the degrading capacity of each BRD4 degrader was reduced by less than 40%)
7,"COC(=O)c1ccc(NC(=O)CCCN(C)C(=O)C[C@@H]2N=C(c3ccc(Cl)cc3)c3c(sc(C)c3C)-n3c(C)nnc32)cc1C#CCN.Cl [5-149′, methyl (S)-2-(3-aminoprop-1-yn-1-yl)-4-(4-(2-(4-(4-chlorophenyl)-2,3,9-trimethyl-6H-thieno[3,2-f][1,2,4]triazolo[4,3-a][1,4]diazepin-6-yl)-N-methylacetamido)butanamido)benzoate hydrochloride]",+++ (the degrading capacity was reduced by 70% or more)
8,"COC(=O)c1ccc(N(C)C(=O)CCCNC(=O)C[C@@H]2N=C(c3ccc(Cl)cc3)c3c(sc(C)c3C)-n3c(C)nnc32)cc1C#CCN.Cl [5-150′, methyl (S)-2-(3-aminoprop-1-yn-1-yl)-4-(4-(2-(4-(4-chlorophenyl)-2,3,9-trimethyl-6H-thieno[3,2-f][1,2,4]triazolo[4,3-a][1,4]diazepin-6-yl)acetamido)-N-methylbutanamido)benzoate hydrochloride]",+++ (the degrading capacity was reduced by 70% or more)
9,"COC(=O)c1ccc(N(C)C(=O)C2CCN(C(=O)C[C@@H]3N=C(c4ccc(Cl)cc4)c4c(sc(C)c4C)-n4c(C)nnc43)CC2)cc1C#CCN [5-152′, methyl (S)-2-(3-aminoprop-1-yn-1-yl)-4-(1-(2-(4-(4-chlorophenyl)-2,3,9-trimethyl-6H-thieno[3,2-f][1,2,4]triazolo[4,3-a][1,4]diazepin-6-yl)acetyl)-N-methylpiperidine-4-carboxamido)benzoate trifluoroacetic acid]",+++ (the degrading capacity was reduced by 70% or more)
10,"COC(=O)c1ccc(C(=O)N(C)C2CCN(C(=O)C[C@@H]3N=C(c4ccc(Cl)cc4)c4c(sc(C)c4C)-n4c(C)nnc43)CC2)cc1C#CCN [5-153′, methyl (S)-2-(3-aminoprop-1-yn-1-yl)-4-((1-(2-(4-(4-chlorophenyl)-2,3,9-trimethyl-6H-thieno[3,2-f][1,2,4]triazolo[4,3-a][1,4]diazepin-6-yl)acetyl)piperidin-4-yl)(methyl)carbamoyl)benzoate trifluoroacetic acid]",+++ (the degrading capacity was reduced by 70% or more)
11,"COC(=O)c1ccc(NC(=O)C2CCN(C(=O)C[C@@H]3N=C(c4ccc(Cl)cc4)c4c(sc(C)c4C)-n4c(C)nnc43)CC2)cc1C#CCNS(N)(=O)=O [5-154′, methyl (S)-4-(1-(2-(4-(4-chlorophenyl)-2,3,9-trimethyl-6H-thieno[3,2-f][1,2,4]triazolo[4,3-a][1,4]diazepin-6-yl)acetyl)piperidine-4-carboxamido)-2-(3-(sulfamoylamino)prop-1-yn-1-yl)benzoate trifluoroacetic acid]",+++ (the degrading capacity was reduced by 70% or more)
12,"COC(=O)c1ccc(NC(=O)C2CCN(C(=O)C[C@@H]3N=C(c4ccc(Cl)cc4)c4c(sc(C)c4C)-n4c(C)nnc43)CC2)cc1C#CC1(N)CC1 [5-155′, methyl (S)-2-((1-aminocyclopropyl)ethynyl)-4-(1-(2-(4-(4-chlorophenyl)-2,3,9-trimethyl-6H-thieno[3,2-f][1,2,4]triazolo[4,3-a][1,4]diazepin-6-yl)acetyl)piperidine-4-carboxamido)benzoate trifluoroacetic acid]",++ (the degrading capacity was reduced by 40% to 70% (exclusive of 70))
13,"COC(=O)c1ccc(NC(=O)C2CCN(C(=O)C[C@@H]3N=C(c4ccc(Cl)cc4)c4c(sc(C)c4C)-n4c(C)nnc43)CC2)cc1C#CCNC(=O)OC(C)OC(=O)C(C)C (stereo partly drawn) [5-157′, methyl 4-(1-(2-((S)-4-(4-chlorophenyl)-2,3,9-trimethyl-6H-thieno[3,2-f][1,2,4]triazolo[4,3-a][1,4]diazepin-6-yl)acetyl)piperidine-4-carboxamido)-2-(3-(((1-(isobutyryloxy)ethoxy)carbonyl)amino)prop-1-yn-1-yl)benzoate]",+++ (the degrading capacity was reduced by 70% or more)
14,"COC(=O)c1ccc(NC(=O)C2CCN(C(=O)C[C@@H]3N=C(c4ccc(Cl)cc4)c4c(sc(C)c4C)-n4c(C)nnc43)CC2)cc1C#CCOS(N)(=O)=O [5-158′, methyl (S)-4-(1-(2-(4-(4-chlorophenyl)-2,3,9-trimethyl-6H-thieno[3,2-f][1,2,4]triazolo[4,3-a][1,4]diazepin-6-yl)acetyl)piperidine-4-carboxamido)-2-(3-(sulfamoyloxy)prop-1-yn-1-yl)benzoate trifluoroacetic acid]",+++ (the degrading capacity was reduced by 70% or more)
15,"COC(=O)c1ccc(N2CC3(CN(C(=O)C[C@@H]4N=C(c5ccc(Cl)cc5)c5c(sc(C)c5C)-n5c(C)nnc54)C3)C2)cc1C#CCNC(=O)OC(C)OC(=O)C(C)C (stereo partly drawn) [5-162′, methyl 4-(6-(2-((S)-4-(4-chlorophenyl)-2,3,9-trimethyl-6H-thieno[3,2-f][1,2,4]triazolo[4,3-a][1,4]diazepin-6-yl)acetyl)-2,6-diazaspiro[3.3]heptan-2-yl)-2-(3-(((1-(isobutyryloxy)ethoxy)carbonyl)amino)prop-1-yn-1-yl)benzoate]",+++ (the degrading capacity was reduced by 70% or more)
16,"COC(=O)c1ccc(N2CCN(CCCNC(=O)C[C@@H]3N=C(c4ccc(Cl)cc4)c4c(sc(C)c4C)-n4c(C)nnc43)CC2)cc1C#CCN.Cl [5-164′, methyl (S)-2-(3-aminoprop-1-yn-1-yl)-4-(4-(3-(2-(4-(4-chlorophenyl)-2,3,9-trimethyl-6H-thieno[3,2-f][1,2,4]triazolo[4,3-a][1,4]diazepin-6-yl)acetamido)propyl)piperazin-1-yl)benzoate hydrochloride]",+++ (the degrading capacity was reduced by 70% or more)
17,"COC(=O)c1cc(N2CCN(CCCNC(=O)C[C@@H]3N=C(c4ccc(Cl)cc4)c4c(sc(C)c4C)-n4c(C)nnc43)CC2)ccc1C#CCN.Cl [5-165′, methyl (S)-2-(3-aminoprop-1-yn-1-yl)-5-(4-(3-(2-(4-(4-chlorophenyl)-2,3,9-trimethyl-6H-thieno[3,2-f][1,2,4]triazolo[4,3-a][1,4]diazepin-6-yl)acetamido)propyl)piperazin-1-yl)benzoate hydrochloride]",+++ (the degrading capacity was reduced by 70% or more)
18,"COC(=O)c1ccc(N2CC3(CCN(C(=O)C[C@@H]4N=C(c5ccc(Cl)cc5)c5c(sc(C)c5C)-n5c(C)nnc54)CC3)C2)cc1C#CCN.Cl [5-168′, methyl (S)-2-(3-aminoprop-1-yn-1-yl)-4-(7-(2-(4-(4-chlorophenyl)-2,3,9-trimethyl-6H-thieno[3,2-f][1,2,4]triazolo[4,3-a][1,4]diazepin-6-yl)acetyl)-2,7-diazaspiro[3.5]nonan-2-yl)benzoate hydrochloride]",+++ (the degrading capacity was reduced by 70% or more)
